Data reported in patent US9512180B2, “Compstatin analogs” (THE REGENTS OF THE UNIVERSITY OF CALIFORNIA, priority 2012, dated 2016).
Where “and” joins values, the source holds several entries; their conditions need not be identical. Equal values may be shown once. Bridge positions count the residues as written; N and C are the ends. Square brackets hold non-standard residues; d marks the D form. Peptide text beside a SMILES is read from it. Trp(1-Me) = Cn1cc(C[C@H](N)C(=O)O)c2ccccc21

What was measured:
[1] = system: complement alternative pathway (AP); experiment: C5b-9 ELISA (inhibition of C5b-9 terminal complex formation); type: biochemical, human
Protocol: Inhibition of the complement alternative pathway (AP) by compstatin family peptides was assayed by ELISA. Peptides were dissolved in phosphate buffered saline (PBS, 150 mM). Initial peptide concentrations were calculated using the Beer-Lambert Law with an extinction coefficient of 5,500 (1/M·cm) for Trp and 5,470 (1/M·cm) for methylated-Trp present in the sequence, at 280 nm. Nunc Maxisorp 96-well plates were coated with 1 μg lipopolysaccharides (LPS) from Salmonella enteriditis for ˜16 h at room temperature. Plates were washed three times with PBS/0.05% Tween-20 (PBS-T) between each step. Plates were blocked with 4% bovine serum albumin (BSA) in PBS-T for 1 h at 37° C. Serial peptide dilutions were performed in 96-well plates, using gelatin veronal-buffered saline with 5 mM MgCl2 and 10 mM EGTA (GVBS-MgEGTA). Normal human serum (Complement Technology Inc., Tyler, Tex., USA) was diluted in GVBS-MgEGTA and mixed with compstatin serial dilutions to a final concentration of 30%. Serum diluted in GVBS-MgEGTA and GVBS (containing 20 mM EDTA) were used as positive and negative controls for complement activation, respectively. Dilutions were preincubated for 15 minutes at room temperature, transferred to ELISA plates, and incubated for 1 h at 37° C. Generation of C3b and C5b-9 were assayed using horseradish peroxidase (HRP)-conjugated anti-C3 (MP Biomedicals, Solon, Ohio, USA) and anti-05b-9 aEll (Abcam, Cambridge, Mass., USA), respectively. Plates were washed and incubated with either anti-C3-HRP (1:5000 in 1% BSA/PBS-T) or anti-05b-9 (1:1000 in 1% BSA/PBS-T) for 1 h at 37° C. For C5b-9 detection, primary antibody incubation was followed by incubation with anti-mouse-HRP (BioRad, Hercules, Calif., USA) for 1 h at 37° C. (1:5000 in 1% BSA/PBS-T). Bound C3b and C5b-9 were quantified using a 3,3′,5,5′-tetramethylbenzidine substrate solution containing urea hydrogen peroxide in 0.11 M sodium acetate buffer, followed by a 1 N H2SO4 acid stop. Plates were measured spectrophotometrically at 450 nm. Percent inhibition of C3b and C5b-9 deposition was plotted against peptide concentration and the data was fitted to a logistic dose response curve with Prism software (GraphPad, San Diego, Calif., USA) to determine IC50 values.
In all assays, MgEGTA was used to chelate Ca′ ions required for classical/lectin pathway complement activation, while providing Mg′ necessary for AP activation. ELISAs allow for direct detection of C3b and C5b-9 formed during AP activation, while erythrocyte lysis assays provide a functional assessment of AP-mediated hemolysis in serum. […] Table 9 summarizes the IC50 values derived from the three different assays. […] The relative potencies of the peptides, based on the measured ICH values, are consistent across all three assays (Peptide III˜Peptide VI˜Peptide IX>Peptide I>Parent). Based on the assay conditions used in this study, peptides inhibited C5b-9 formation with moderately better efficacy than formation of C3b, while slightly higher concentrations were necessary to inhibit AP-mediated hemolysis.

[2] = system: complement alternative pathway (AP); experiment: Hemolytic assay (rabbit erythrocyte lysis in human serum); type: cell-based; details: for IC50: Table 9, means from three independent experiments, read-out: IC50, Hemolytic assay
Protocol: Inhibition of complement was also measured via lysis of erythrocytes. Rabbit erythrocytes (Complement Technology Inc., Tyler, Tex., USA) were washed in PBS and resuspended in veronal-buffered saline with 5 mM MgCl2 and 10 mM EGTA (VBS-MgEGTA). Peptide and serum dilutions were prepared as described above, and 1×10^7 erythrocytes were added to each serum/peptide mixture. Erythrocytes diluted in sterile deionized water and in VBS-MgEGTA were used as positive and negative controls for lysis, respectively. Plates were incubated for 20 minutes at 37° C., and centrifuged at 2500×g for 10 minutes.
In all assays, MgEGTA was used to chelate Ca′ ions required for classical/lectin pathway complement activation, while providing Mg′ necessary for AP activation. ELISAs allow for direct detection of C3b and C5b-9 formed during AP activation, while erythrocyte lysis assays provide a functional assessment of AP-mediated hemolysis in serum.

[3] = Aqueous solubility by concentration measurement (absorbance at 280 nm) of saturated peptide solutions; type: physicochemical
Protocol: The relative lipophilicities of Peptides I, III, VI, IX, and Parent are inversely consistent with solubilities as determined via concentration measurement (absorbance at 280 nm) of saturated peptide solutions, with Peptides I, III, and Parent having approximate aqueous solubilities of >1 mM, Peptide VI>500 μM, and Peptide IX<500 μM.

[4] = Table 9, means from three independent experiments, read-out: IC50, C5b-9 ELISA
[5] = table 13, read-out: C5b-9 ELISA IC50

CC[C@H](C)[C@H](N)C(=O)N[C@H]1CSSC[C@@H](C(=O)N[C@H](C(N)=O)[C@@H](C)O)NC(=O)[C@H](CCCN=C(N)N)NC(=O)[C@H](Cc2cnc[nH]2)NC(=O)[C@H](Cc2cnc[nH]2)NC(=O)CNC(=O)[C@H](Cc2c[nH]c3ccccc23)NC(=O)[C@H](CC(=O)O)NC(=O)[C@H](CCC(N)=O)NC(=O)[C@H](C(C)C)NC(=O)[C@H](C(C)C)NC1=O [Parent, ICV VQDWGH HRCT-NH2, reference compound]
inhibition less than other peptides ([1]; C5b-9 inhibition in ELISA, versus Peptides I, III, VI, IX): 10- to 15 fold | IC50 [1, 4]: 18600 nM | IC50 [1, 5]: 18600 nM and 12600 nM | IC50 [2]: 12900 nM | difference in inhibition to other peptides ([2]; hemolysis, versus Peptides I, III, VI, IX): 4- to 6 fold

CC(=O)N[C@@H](CCCNC(=N)N)C(=O)N[C@H]1CSSC[C@@H](C(=O)N[C@H](C(N)=O)[C@@H](C)O)NC(=O)[C@H](CCCNC(=N)N)NC(=O)[C@H](Cc2c[nH]cn2)NC(=O)[C@H](C)NC(=O)CNC(=O)[C@H](Cc2c[nH]c3ccccc23)NC(=O)[C@H](CC(=O)O)NC(=O)[C@H](CCC(N)=O)NC(=O)[C@H](Cc2c[nH]c3ccccc23)NC(=O)[C@H](C(C)C)NC1=O [Peptide I, Ac- RCV WQDWGA HRCT-NH2] (Ac-RCVWQDWGAHRCT-NH2; disulfide 2-12)
IC50 [1, 4]: 2020 nM | IC50 [1, 5]: 1000 nM and 2000 nM | IC50 [2]: 3330 nM | solubility [3]: > 1000 µM

CC(=O)N[C@@H](CCCNC(=N)N)C(=O)N[C@H]1CSSC[C@@H](C(=O)N[C@H](C(N)=O)[C@@H](C)O)NC(=O)[C@H](CCCNC(=N)N)NC(=O)[C@H](Cc2c[nH]cn2)NC(=O)[C@H](C)NC(=O)CNC(=O)[C@H](Cc2c[nH]c3ccccc23)NC(=O)[C@H](CC(=O)O)NC(=O)[C@H](CCC(N)=O)NC(=O)[C@H](Cc2cn(C)c3ccccc23)NC(=O)[C@H](C(C)C)NC1=O [Peptide III, Ac- RCV meWQDWGA HRCT-NH2] (Ac-RCV[Trp(1-Me)]QDWGAHRCT-NH2; disulfide 2-12)
IC50 [1, 4]: 1070 nM | IC50 [1, 5]: 600 nM and 1100 nM | IC50 [2]: 2250 nM | solubility [3]: > 1000 µM

CC[C@H](C)[C@H](NC(=O)[C@H](CO)NC(=O)[C@H](CCCNC(=N)N)NC(C)=O)C(=O)N[C@H]1CSSC[C@@H](C(=O)N[C@H](C(N)=O)[C@@H](C)O)NC(=O)[C@H](CCCNC(=N)N)NC(=O)[C@H](Cc2c[nH]cn2)NC(=O)[C@H](C)NC(=O)CNC(=O)[C@H](Cc2c[nH]c3ccccc23)NC(=O)[C@H](CC(=O)O)NC(=O)[C@H](CCC(N)=O)NC(=O)[C@H](Cc2cn(C)c3ccccc23)NC(=O)[C@H](C(C)C)NC1=O [Peptide VI, Ac-RS-ICV meWQDWGA HRCT-NH2]
IC50 [1, 4]: 1130 nM | IC50 [1, 5]: 600 nM and 1100 nM | IC50 [2]: 2230 nM | solubility [3]: > 500 µM
